We go through four molecules from patent publication US20170065566A1, “PHARMACEUTICAL COMBINATIONS COMPRISING ANTIBACTERIAL AGENTS” (WOCKHARDT LIMITED, priority 2014, published 2017).

Where a name gives a salt, the structure may show the parent alone.

This assay relates to E. coli 7MP strain producing CMY type, SHV, TEM beta-lactamase enzymes. Kind of assay: Time kill study (viable bacterial count). It counts as cell-based. The conditions noted are these: for Effect on bacterial count of E. coli throughout the duration of the study (in words): alone or in combination; for Bacterial count (Log10 CFU/ml) 0 hour / Bacterial count (Log10 CFU/ml) 2 hour / Bacterial count (Log10 CFU/ml) 4 hour / Bacterial count (Log10 CFU/ml) 6 hour / Bacterial count (Log10 CFU/ml) 8 hour: time kill. The protocol: The synergistic killing effect of the combinations according to invention was studied by performing time kill studies. In a typical time kill study, the freshly grown cultures were diluted to the required cell density (initial starting inoculum) in Cation adjusted Muller Hinton broth medium (BD, USA). The antibacterial agents (either alone or in combination) at the required concentrations were added into the culture-containing medium. The samples were incubated under shaking condition (120 rpm) at 37° C. Enumeration of viable bacterial count was done every 2 hour by diluting in normal saline and plating on to the Tryptic Soya Agar plates (BD, USA). The plates were incubated for 24 hours to arrive at the viable bacterial count. […] In general, the decrease of 1 Log CFU/ml, corresponds to 90% killing of bacteria. Similarly, 2 Log CFU/ml reductions indicates to 99% killing of bacteria and 3 Log CFU/ml reductions is equal to 99.9% killing of bacteria.
The assay without any antibacterial agent was taken as control.

The mark [1] stands for this setting: each active ingredient at 4 mcg/ml.

On to `N#C[C@@H]1CC[C@@H]2CN1C(=O)N2OS(=O)(=O)O` [Sodium salt of a compound of Formula (I), sodium salt of sulphuric acid, mono[(1R,2S,5R)-2-cyano-7-oxo-1,6-diazabicyclo[3.2.1]oct-6-yl] ester], for which, under setting [1], the “Effect on bacterial count of E. coli throughout the duration of the study (in words)” value (from here on “Effect on bacterial count”) is “not effective in decreasing the bacterial count”, the “Bacterial count (Log10 CFU/ml) 0 hour” value worked out at 7.51 Log10 CFU/ml, the “Bacterial count (Log10 CFU/ml) 2 hour” value was 8.87 Log10 CFU/ml and the “Bacterial count (Log10 CFU/ml) 4 hour” value was determined as 9.36 Log10 CFU/ml. Under setting [1], the “Bacterial count (Log10 CFU/ml) 6 hour” value is 9.20 Log10 CFU/ml and the “Bacterial count (Log10 CFU/ml) 8 hour” value worked out at 9.20 Log10 CFU/ml.
Consider `C[C@@H](O)[C@H]1C(=O)N2C(C(=O)O)=C(SCCN=CN)C[C@H]12` [Imipenem, imipenem], for which, where the note is “2 mcg/ml”, the “Bacterial count (Log10 CFU/ml) 0 hour” value stood at 7.51 Log10 CFU/ml, the “Bacterial count (Log10 CFU/ml) 2 hour” value was 3.95 Log10 CFU/ml, the “Bacterial count (Log10 CFU/ml) 4 hour” value is on record as 3.60 Log10 CFU/ml and the “Bacterial count (Log10 CFU/ml) 6 hour” value was found to be 4.81 Log10 CFU/ml. Also, the “Bacterial count (Log10 CFU/ml) 8 hour” value (2 mcg/ml) is recorded as 5.90 Log10 CFU/ml.
With `CO/N=C(\C(=O)N[C@@H]1C(=O)N2C(C(=O)[O-])=C(C[N+]3(C)CCCC3)CS[C@H]12)c1csc(N)n1` [Cefepime, cefepime], under setting [1], the “Effect on bacterial count” value is reported as “not effective in decreasing the bacterial count”, the “Bacterial count (Log10 CFU/ml) 0 hour” value is on record as 7.51 Log10 CFU/ml, the “Bacterial count (Log10 CFU/ml) 2 hour” value came out at 8.47 Log10 CFU/ml and the “Bacterial count (Log10 CFU/ml) 4 hour” value worked out at 9.19 Log10 CFU/ml. Under setting [1], the “Bacterial count (Log10 CFU/ml) 6 hour” value is listed as 9.20 Log10 CFU/ml and the “Bacterial count (Log10 CFU/ml) 8 hour” value is given as 9.30 Log10 CFU/ml.
Turning to `CO/N=C(\C(=O)N[C@@H]1C(=O)N2C(C(=O)[O-])=C(C[n+]3cccc4c3CCC4)CS[C@H]12)c1csc(N)n1` [Cefpirome, cefpirome], under setting [1], the “Effect on bacterial count” value was “not effective in decreasing the bacterial count”, the “Bacterial count (Log10 CFU/ml) 0 hour” value turned out to be 7.51 Log10 CFU/ml, the “Bacterial count (Log10 CFU/ml) 2 hour” value was found to be 8.87 Log10 CFU/ml and the “Bacterial count (Log10 CFU/ml) 4 hour” value is listed as 9.27 Log10 CFU/ml. Further, under setting [1], the “Bacterial count (Log10 CFU/ml) 6 hour” value is 9.20 Log10 CFU/ml and the “Bacterial count (Log10 CFU/ml) 8 hour” value worked out at 9.25 Log10 CFU/ml.
